Measurements as given in patent publication US20220002551A1, “A NOVEL CLASS OF PIGMENTS IN ASPERGILLUS” (DANMARKS TEKNISKE UNIVERSITET, priority 2019, published 2022).

Test: Color intensity E1% of cavernamine-L powder and its formulation
Assay type: physicochemical
Protocol: The dilution mixture was adjusted to pH 5 with Sodium Hydroxide 2 M. The cavernamine-L powder was added to the dilution mixture in a concentration of 0.5 g/L and mixed for 5 minutes. The colored solution was then frozen prior to lyophilzation. Diluted red powder was recovered and the color intensity of the formulated cavernamine-L was detected to be E1% (at 492 nm) of 2.2, compared to E1% (at 492 nm) of 220 of original pure cavernamine-L powder.

color intensity E1% (at 492 nm): 220
SMILES: C/C=C\C1=CC2=CC3=C(C(=O)C(C)CC)C(=O)OC3(C)C(=O)C2=CN1C(CC(C)C)C(=O)O (stereo not drawn) [cis-cavernamine-L]
